The test relates to P388 leukemia ip, CD2F1 mice, survival T/C. Kind of test: NCI In Vivo Anticancer Drug Screen. Data for tumor model P388 Leukemia (intraperitoneal) in CD2F1 (CDF1) mice. The following applies: endpoint: median survival time, higher = longer survival. In short, it runs like this: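 Mice carrying the transplanted tumor received test compound or vehicle. Survival was recorded in each group, and the value is the treated-group measurement divided by that of the vehicle-treated control group.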

Setting [1] is: dose: 50.0 mg/kg/injection, schedule: Q01DX009 (ip), vehicle: saline with Tween-80.
Where [2] appears, read: dose: 100.0 mg/kg/injection, schedule: Q01DX009 (ip), vehicle: saline with Tween-80.
The mark [3] stands for this setting: dose: 200.0 mg/kg/injection, schedule: Q01DX009 (ip), vehicle: saline with Tween-80.
The mark [4] stands for this setting: dose: 60.0 mg/kg/injection, schedule: Q01DX005 (ip), vehicle: saline with Tween-80.
Setting [5] is: dose: 120.0 mg/kg/injection, schedule: Q01DX005 (ip), vehicle: saline with Tween-80.
[6] abbreviates: dose: 240.0 mg/kg/injection, schedule: Q01DX005 (ip), vehicle: saline with Tween-80.
The mark [7] stands for this setting: dose: 50.0 mg/kg/injection, schedule: Q01DX005 (ip), vehicle: saline.
The mark [8] stands for this setting: dose: 100.0 mg/kg/injection, schedule: Q04DX003 (ip), vehicle: saline with Tween-80.
Setting [9] is: dose: 200.0 mg/kg/injection, schedule: Q04DX003 (ip), vehicle: saline with Tween-80.

Where “and” joins values, the source holds several entries; their conditions need not be identical. Equal values may be shown once. Inconclusive results and toxic doses are left out. Peptide text beside a SMILES is read from it. * marks the point of attachment. Trt = c1ccc(C(c2ccccc2)(c2ccccc2)*)cc1; Bn = c1ccc(C*)cc1

Regarding `COC(=O)C(CSC(c1ccccc1)(c1ccccc1)c1ccccc1)NC(=O)C(CSCc1ccccc1)NC(C)=O` (stereo not drawn) (Ac-Cys(Bn)-Cys(Trt)-OMe; configuration not given here), the T/C runs as follows: (dose: 4.0 mg/kg/injection, schedule: Q01DX009 (ip), vehicle: water) 96 % of control; (dose: 8.0 mg/kg/injection, schedule: Q01DX009 (ip), vehicle: water) 104 % of control; (dose: 16.0 mg/kg/injection, schedule: Q01DX009 (ip), vehicle: water) 101 % of control; (dose: 32.0 mg/kg/injection, schedule: Q01DX009 (ip), vehicle: water) 95 % of control; (dose: 64.0 mg/kg/injection, schedule: Q01DX009 (ip), vehicle: water) 95 % of control; (dose: 128.0 mg/kg/injection, schedule: Q01DX009 (ip), vehicle: water) 90 % of control.
As for `Cn1c2ccccc2c2oc(CO)cc(=O)c21`, the T/C (dose: 60.0 mg/kg/injection, schedule: Q01DX005 (ip), vehicle: Klucel (hydroxypropylcellulose) (HPC)) is 95 % of control; the T/C (dose: 120.0 mg/kg/injection, schedule: Q01DX005 (ip), vehicle: Klucel (hydroxypropylcellulose) (HPC)) is 89 % of control; the T/C (dose: 240.0 mg/kg/injection, schedule: Q01DX005 (ip), vehicle: Klucel (hydroxypropylcellulose) (HPC)) is 91 % of control.
As to `C#CCSc1nnnn1-c1ccccc1`, the T/C under setting [1] was 98 % of control, the T/C under setting [2] is 90 % of control and the T/C under setting [3] was 90 % of control.
As for `CCCCCC(C)[P+](c1ccccc1)(c1ccccc1)c1ccccc1` (stereo not drawn), the T/C runs as follows: (dose: 0.39 mg/kg/injection, schedule: Q01DX009 (ip), vehicle: saline with Tween-80) 101 % of control; (dose: 0.78 mg/kg/injection, schedule: Q01DX009 (ip), vehicle: saline with Tween-80) 114 % of control and 120 % of control.
Regarding `COC(=O)c1ncn(C(C(=O)OC)C(=O)OC)c1O`, the T/C reads like this: under setting [4], 104 % of control; under setting [5], 100 % of control; under setting [6], 113 % of control.
Take `C=CCN(CC=C)c1cc(NN)nnc1Cl`: the T/C was 102 % of control (dose: 25.0 mg/kg/injection, schedule: Q01DX009 (ip), vehicle: other) and 105 % of control (dose: 50.0 mg/kg/injection, schedule: Q01DX009 (ip), vehicle: other).
`O=C1c2cccc3c([N+](=O)[O-])ccc(c23)C(=O)N1CCc1ccccn1`: the T/C is, setting by setting: (dose: 50.0 mg/kg/injection, schedule: Q01DX005 (ip), vehicle: saline with Tween-80) 101 % of control; (dose: 100.0 mg/kg/injection, schedule: Q01DX005 (ip), vehicle: saline with Tween-80) 111 % of control; (dose: 200.0 mg/kg/injection, schedule: Q01DX005 (ip), vehicle: saline with Tween-80) 96 % of control.
On to `CC1OC(OCC2OC(OCCc3ccc(O)c(O)c3)C(O)C(OC3OC(C)C(O)C(O)C3O)C2O)C(O)C(O)C1O` (stereo not drawn) (tested in a mixture with another compound), for which the T/C (dose: 9.5 mg/kg/injection, schedule: Q01DX009 (ip), vehicle: saline) is 105 % of control; the T/C (dose: 19.0 mg/kg/injection, schedule: Q01DX009 (ip), vehicle: saline) is 103 % of control; the T/C (dose: 38.0 mg/kg/injection, schedule: Q01DX009 (ip), vehicle: saline) was 112 % of control; the T/C (dose: 76.0 mg/kg/injection, schedule: Q01DX009 (ip), vehicle: saline) was 103 % of control.
With `CC(C)(C)c1cc(C(C)(C)C)c2[n+]([O-])ssc1-2`, the T/C is 120 % of control (dose: 15.0 mg/kg/injection, schedule: Q01DX005 (ip), vehicle: saline with Tween-80); 108 % of control (dose: 30.0 mg/kg/injection, schedule: Q01DX005 (ip), vehicle: saline with Tween-80); 113 % of control and 95 % of control under setting [4]; 97 % of control under setting [5].
With `Nc1cc(S(N)(=O)=O)ccc1SSc1ccc(S(N)(=O)=O)cc1N`, the T/C was 94 % of control (dose: 50.0 mg/kg/injection, schedule: Q01DX009 (ip), vehicle: Klucel (hydroxypropylcellulose) (HPC)); 105 % of control under setting [1]; 112 % of control (dose: 100.0 mg/kg/injection, schedule: Q01DX009 (ip), vehicle: Klucel (hydroxypropylcellulose) (HPC)); 109 % of control under setting [2]; 112 % of control (dose: 200.0 mg/kg/injection, schedule: Q01DX009 (ip), vehicle: Klucel (hydroxypropylcellulose) (HPC)); 110 % of control under setting [3]. Also, the T/C is, setting by setting: (dose: 400.0 mg/kg/injection, schedule: Q01DX009 (ip), vehicle: Klucel (hydroxypropylcellulose) (HPC)) 121 % of control; (dose: 400.0 mg/kg/injection, schedule: Q01DX009 (ip), vehicle: saline with Tween-80) 117 % of control.
For the compound `CN=C(NCCSCc1ccc2ccccc2n1)NCc1ccccc1`, the T/C is 98 % of control (dose: 12.5 mg/kg/injection, schedule: Q01DX005 (ip), vehicle: saline); 109 % of control (dose: 25.0 mg/kg/injection, schedule: Q01DX005 (ip), vehicle: saline); 101 % of control under setting [7].
Regarding `COc1cccc2c1C(=O)c1c(O)c3c(c(O)c1C2=O)CC(O)(C(=O)CO)CC3OC1CC(N)C(O)C(C)O1.[Cl][Pt+2][Cl].[NH2-].[NH2-]` (stereo not drawn), the T/C was 171 % of control and 182 % of control (dose: 8.0 mg/kg/injection, schedule: Q04DX003 (ip), vehicle: DMSO); 174 % of control and 193 % of control (dose: 16.0 mg/kg/injection, schedule: Q04DX003 (ip), vehicle: DMSO); 118 % of control (dose: 32.0 mg/kg/injection, schedule: Q04DX003 (ip), vehicle: DMSO); 100 % of control (dose: 64.0 mg/kg/injection, schedule: Q04DX003 (ip), vehicle: DMSO).
Take `CCOc1cc2cc(CCC#N)c(C)cc2cn1`: the T/C (dose: 12.5 mg/kg/injection, schedule: Q01DX009 (ip), vehicle: distilled water + Tween-80) is 93 % of control; the T/C (dose: 25.0 mg/kg/injection, schedule: Q01DX009 (ip), vehicle: distilled water + Tween-80) was 87 % of control; the T/C (dose: 50.0 mg/kg/injection, schedule: Q01DX009 (ip), vehicle: distilled water + Tween-80) was 87 % of control.
For `NCCC1CCCCN1` (stereo not drawn), the T/C is 95 % of control (dose: 50.0 mg/kg/injection, schedule: Q01DX001 (ip), vehicle: saline); 105 % of control (dose: 100.0 mg/kg/injection, schedule: Q01DX001 (ip), vehicle: saline); 105 % of control (dose: 200.0 mg/kg/injection, schedule: Q01DX001 (ip), vehicle: saline).
Take `O=C(O)c1ccc2ccccc2n1`: the T/C is 96 % of control (dose: 100.0 mg/kg/injection, schedule: Q04DX002 (ip), vehicle: saline); 94 % of control (dose: 200.0 mg/kg/injection, schedule: Q04DX002 (ip), vehicle: saline); 104 % of control (dose: 400.0 mg/kg/injection, schedule: Q04DX002 (ip), vehicle: saline).
On to `COc1ccc2c(c1)CCC1OC(c3cccnc3)OC21` (stereo not drawn), for which the T/C is 99 % of control under setting [4], 99 % of control under setting [5] and 97 % of control under setting [6].
As for `CN1CCN(C(=O)c2cccc3cccc(C(=O)O)c23)CC1`, the T/C (dose: 60.0 mg/kg/injection, schedule: Q01DX005 (ip), vehicle: water) is 103 % of control; the T/C (dose: 120.0 mg/kg/injection, schedule: Q01DX005 (ip), vehicle: water) is 93 % of control; the T/C (dose: 240.0 mg/kg/injection, schedule: Q01DX005 (ip), vehicle: water) is 100 % of control.
As for `O=C1c2ccccc2C(=O)N1Cc1ccccc1`, the T/C by setting is: under setting [8], 104 % of control; under setting [9], 95 % of control; (dose: 400.0 mg/kg/injection, schedule: Q04DX003 (ip), vehicle: saline with Tween-80) 100 % of control.
On to `O=c1[nH]c(=O)n(C2CC(O)C(CO)C2)cc1F` (stereo not drawn), for which the T/C by setting is: (dose: 200.0 mg/kg/injection, schedule: Q01DX005 (ip), vehicle: saline + Tween-80 + alcohol) 100 % of control; (dose: 400.0 mg/kg/injection, schedule: Q01DX005 (ip), vehicle: saline + Tween-80 + alcohol) 120 % of control.
On to `O=NN(CCCl)C(=O)Nc1ccc(Br)cn1`, for which the T/C was 100 % of control (dose: 50.0 mg/kg/injection, schedule: Q04DX003 (ip), vehicle: saline with Tween-80); 150 % of control under setting [2]; 100 % of control under setting [8]; 150 % of control under setting [3]; 118 % of control under setting [9].
In the case of `CN(C)C1C(=O)C(C(=O)NCNC(C=O)C(O)C(O)C(O)CO)=C(O)C2(O)C(=O)C3=C(O)c4c(O)cccc4C(C)(O)C3CC12` (stereo not drawn), the T/C reads like this: under setting [7], 100 % of control; (dose: 100.0 mg/kg/injection, schedule: Q01DX005 (ip), vehicle: saline) 99 % of control; (dose: 200.0 mg/kg/injection, schedule: Q01DX005 (ip), vehicle: saline) 96 % of control.

(Values after PubChem BioAssay AID330 (DTP/NCI, 2004).)
